Measured values as given in US12421489B2, “Biological control of plant pathogenic microorganisms” (priority 2016, dated 2025).

Legend:
Botrytis spp. [1] = assay: Cherry inoculation assays 2 and 4: Botrytis spp. fruit rot of ‘Sweet Valentine’ cherries, dip treatment; assay type: in vivo; conditions: Assay 2, cherries, cumulative after 13 days; nil 35%; not significantly reduced (P>0.05)
Procedure: Fruit-based screening assays were conducted in laboratories at the Plant and Food Research Ruakura Research Centre, Hamilton, New Zealand (PFR). PFR assays focused on dip treatment application of YBCA5 and fungicide controls.
Fruit for Monilinia fructicola and Botrytis spp. inoculation assays were carried out on sweet cherries (Prunus avium ‘Sweet Valentine’) that were picked at the harvest mature stage and sourced from the PFR Clyde Research Orchard in Central Otago on 8 Jan. 2016 for fruit based assays 1 and 2. A second harvest was carried out on 13 Jan. 2016 for fruit based assays 3 and 4.
Each cherry was then subjected to a double wash process. Wash one consisted of 10 minutes in tap water on a rotary shaker (110 rpm) followed by a five minute wash in SDW (Wash 2). […]
A Botrytis spp. culture (isolate code 09-2), which had been originally isolated from an infected kiwifruit located in the Bay of Plenty region during the 2000s, was used for the spray inoculation assays included in this section carried out on cherries. […] This stock suspension was then filtered using a 70 μm cell strainer (70 μm mesh) to remove mycelial fragments, the concentration determined using a haemocytometer and then adjusted, by dilution with SDW+Tw 80 (0.01% v/v) to a final concentration of 1×10^5 conidia/mL. […]

Botrytis spp. [2] = assay: Assay 8: wound protection of ‘Hongyang’ kiwifruit, Botrytis spp.; assay type: in vivo; conditions: wounded ‘Hongyang’ kiwifruit, treatment 24 h before Botrytis spp., 6 days incubation
Procedure: The kiwifruit ‘Hongyang’-based screening assays (assays 8 and 9) were conducted in laboratories at the Plant and Food Research Ruakura Research Centre, Hamilton, New Zealand (PFR). PFR assays focused on wound application of YBCA5 treatment, a commercial biological control treatment and a fungicide were used as comparative controls.
The ‘Hongyang’ kiwifruit were sourced from the PFR Riwaka Research Orchard in Motueka on 12 Apr. 2017 for fruit based assays 8 and 9. Penicillium spp. Phomopsis spp., Alternaria spp., Colletotrichum spp., Cryptosporiopsis spp. and Botrytis spp. inoculation assays were carried out on ‘Hongyang’ kiwifruit that were picked at the harvest mature stage. […]
For assays 8 and 9, two sterile paper towels were placed beneath Plix cut-outs, moistened with 40 mL SDW and each fruit placed in disposable lunch boxes (Plix Extra Deep 45/45, containing five Plix fruit cut-outs to prevent fruit from moving), sealed, then placed into large (40 L) plastic bins which were closed to ensure high relative humidity for the first 24 h and incubated on the lab bench at 24° C. […] After 6 days, (Alternaria spp. Botrytis spp., Penicillium spp., Phomopsis spp., Colletotrichum spp.) and 7 days (Cryptosporiopsis spp.), the severity of fungal rot was assessed for each treatment by measuring the lesion length (mm) along the axis of the fruit. […]

## CC(C)NC(=O)N1CC(=O)N(c2cc(Cl)cc(Cl)c2)C1=O [iprodione]
Botrytis spp. [1]
  incidence of Botrytis spp. fruit rot: 22%
Botrytis spp. [2]
  lesion size, comparison between treatments: significantly smaller than the untreated control
